# Literature values as cited in patent US6432971B1, “Method of prevention of prostatic carcinoma with 17β-N-monosubstituted-carbamoyl-4-aza-5α-androst-1-en-3-ones” (Merck & Co., Inc., priority 1991, dated 2002).
# Legend:
# [1] = tested on: testosterone-5α-reductase; conditions: in vitro; Voigt and Hsia, Endocrinology 92, 1216 (1973)
# [2] = tested on: female hamster flank organ; conditions: for effect on flank organ response elicited by 5α-dihydrotestosterone: concomitant administration with topical 5α-dihydrotestosterone; for effect on flank organ response elicited by testosterone: concomitant administration with topical testosterone
SMILES,inhibition of testosterone-5α-reductase [1],effect on flank organ response elicited by 5α-dihydrotestosterone [2],effect on flank organ response elicited by testosterone [2]
C[C@]12CC[C@H]3[C@@H](CCC4=CC(=O)CC[C@@]43C)[C@@H]1CC[C@@H]2C(=O)O [4-androsten-3-one-17β-carboxylic acid],active inhibitors of testosterone-5α-reductase in vitro,did not inhibit the response elicited by 5α-dihydrotestosterone,inhibited the response elicited by testosterone
COC(=O)[C@H]1CC[C@H]2[C@@H]3CCC4=CC(=O)CC[C@]4(C)[C@H]3CC[C@]12C [methyl 4-androsten-3-one-17β-carboxylate],active inhibitors of testosterone-5α-reductase in vitro,did not inhibit the response elicited by 5α-dihydrotestosterone,inhibited the response elicited by testosterone
